Patent publication US20210369677A1, “SMALL MOLECULE ACTIVATORS OF POLYCYSTIN-2 (PKD2) AND USES THEREOF” (Northwestern University, priority 2020, published 2021)

Molecular target: T1, polycystin-2 channels (Mus musculus, UniProt O35245, DEL771-772)
T1 construct: the mouse channel orthologue under endogenous expression in the kidney collecting duct; endogenous in cells; host or cells: primary inner medullary collecting duct (pIMCD) cells of ARL13B-EGFP mice
T1 sequence (O35245 with tags, fused parts or gaps DEL771-772): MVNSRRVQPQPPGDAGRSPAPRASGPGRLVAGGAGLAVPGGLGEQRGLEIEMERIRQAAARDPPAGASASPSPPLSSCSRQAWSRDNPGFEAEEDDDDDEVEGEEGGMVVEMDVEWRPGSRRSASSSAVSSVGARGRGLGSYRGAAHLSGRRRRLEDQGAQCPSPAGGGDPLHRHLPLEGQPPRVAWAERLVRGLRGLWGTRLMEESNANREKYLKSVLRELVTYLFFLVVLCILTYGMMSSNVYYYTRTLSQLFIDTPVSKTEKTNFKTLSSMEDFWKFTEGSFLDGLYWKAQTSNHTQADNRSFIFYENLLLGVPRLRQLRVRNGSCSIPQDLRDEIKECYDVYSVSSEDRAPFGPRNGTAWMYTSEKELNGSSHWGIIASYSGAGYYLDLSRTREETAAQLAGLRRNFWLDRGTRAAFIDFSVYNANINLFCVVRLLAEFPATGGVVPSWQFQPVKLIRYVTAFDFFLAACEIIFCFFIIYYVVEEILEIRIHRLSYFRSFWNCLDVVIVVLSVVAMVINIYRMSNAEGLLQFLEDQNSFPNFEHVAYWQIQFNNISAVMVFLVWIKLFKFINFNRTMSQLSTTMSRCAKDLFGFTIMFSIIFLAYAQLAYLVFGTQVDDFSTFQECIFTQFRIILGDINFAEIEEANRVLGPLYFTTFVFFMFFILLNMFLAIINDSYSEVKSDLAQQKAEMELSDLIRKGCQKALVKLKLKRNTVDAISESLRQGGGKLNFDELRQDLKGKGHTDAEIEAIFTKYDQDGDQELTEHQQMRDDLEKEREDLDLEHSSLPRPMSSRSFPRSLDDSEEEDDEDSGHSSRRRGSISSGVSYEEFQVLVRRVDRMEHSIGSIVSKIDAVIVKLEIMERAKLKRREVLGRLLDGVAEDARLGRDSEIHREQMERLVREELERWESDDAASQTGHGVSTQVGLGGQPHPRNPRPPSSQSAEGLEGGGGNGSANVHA
Assay: Inside-out cilia patch of pIMCD cells, calcium opening of polycystin-2 channels
Assay type: cell-based
Settings: Pkd2del-Z/delZ mice; read-out: EC50, potency of calcium opening polycystin-2 channels
Experimental: Cell culture of primary inner medullary collecting duct cells and immortalized cell lines. Primary inner medullary collecting ducts cells (pIMCD) were isolated from WT or Pkd2^del-Z/del-Z mice co-expressing the ARL13B-EGFP cilia reporter using the previously described method (Liu et al., 2018). Briefly, inner medullae were removed from the kidney and disassociated using a Dulbecco's phosphate buffered solution (DPBS) containing 2 mg/ml collagenase A and 1 mg/ml hyaluronidase. After mechanical disassociation on ice, medullary cells were cultured in Dulbecco's modified essential medium (DMEM) supplemented with 10% fetal bovine serum (FBS) and 100 units/ml penicillin/100 μg/ml streptomycin. Cilia were patched from cells within 6 days after isolation and within one passage. HEK PKD2^Null cell lines were generated using the CRISPR/Cas9 gene editing kit available from Addgene and authenticated using PCR analysis, as previously described (Liu et al., 2018). […]
Electrophysiology. The electrophysiologist was blinded by a third party in the laboratory, where test groups were assigned a letter to conceal the genetic identity of the cells being evaluated. […] Ciliary ion currents were recorded using borosilicate glass electrodes polished to resistances of 14-23 MΩ using the cilium patch method previously described (Vien et al., 2020). Single channel currents measured in the inside-out configuration were recorded in symmetrical sodium concentrations. […] Calcium was buffered with 5 EGTA (ethylene glycol-bis(o-aminoethyl ether)-N,N,N′,N′-tetraacetic acid), 5 Na4-BAPTA (Glycine, N, N′-[1,2-ethanediylbis(oxy-2,1-phenylene)]bis[N-(carboxymethyl)]-,tetrasodium) and 0.5 EDTA […]; free calcium was calculated using Maxchilator and titration of 1 M CaCl2) solution (Bers et al., 2010); pH was adjusted to 7.3 using NaOH. […] Whole cell currents used to measure CDD were also recorded in symmetrical sodium concentration, placing the internal recording solution in the pipette electrode and the external recording solution in the bath. […]

## [Ca+2] [Ca^2+, calcium]
  EC50: 1400 ± 300 nM
